Measured values reported in ChEMBL document CHEMBL1201862, “PubChem BioAssay data set” (2004).
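Values below derive from 48-hour exposures of cells grown in 96-well plates, with endpoints linearly interpolated between the two concentrations bracketing the appropriate inhibition level. GI50 marks 50% less growth.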 Calls of active or inactive are those of the source. Cut-off read from the data, not from the text of the source: active = GI50 up to about 1.1 µM and inactive = higher.

Experiments:
Assay in all cases: NCI anticancer screen, dose series, 48 h
A498 = tested on: A498
CCRF-CEM = tested on: CCRF-CEM
COLO 205 = tested on: COLO 205
EKVX = tested on: EKVX
HCT-15 = tested on: HCT-15
HL-60 = tested on: HL-60
NCI-H226 = tested on: NCI-H226
NCI-H23 = tested on: NCI-H23
NCI-H460 = tested on: NCI-H460
OVCAR-3 = tested on: OVCAR-3
OVCAR-4 = tested on: OVCAR-4
OVCAR-8 = tested on: OVCAR-8
RPMI-8226 = tested on: RPMI-8226
SF-539 = tested on: SF-539
SK-MEL-5 = tested on: SK-MEL-5
SN12C = tested on: SN12C
SNB-19 = tested on: SNB-19
SW-620 = tested on: SW-620
UACC-62 = tested on: UACC-62
UO-31 = tested on: UO-31

SMILES | GI50 (A498) | GI50 (CCRF-CEM) | GI50 (COLO 205) | GI50 (EKVX) | GI50 (HCT-15) [µM] | GI50 (HL-60) | GI50 (NCI-H226) | GI50 (NCI-H23) | GI50 (NCI-H460) | GI50 (OVCAR-3) | GI50 (OVCAR-4) | GI50 (OVCAR-8) | GI50 (RPMI-8226) | GI50 (SF-539) | GI50 (SK-MEL-5) | GI50 (SN12C) | GI50 (SNB-19) | GI50 (SW-620) | GI50 (UACC-62) | GI50 (UO-31)
Cn1c2ccccc2c(=O)c2c(O)cc3c(c21)C=CC(C)(C)O3 [NORACRONYCINE] | > 13.5 µM (inactive) | > 25 µM (inactive) | > 25 µM (inactive) | > 21.1 µM (inactive) | > 25 | > 11.1 µM (inactive) | > 25 µM (inactive) | > 25 µM (inactive) | > 25 µM (inactive) | > 25 µM (inactive) | > 25 µM (inactive) | 2.5 µM (inactive) | > 25 µM (inactive) | > 25 µM (inactive) | > 25 µM (inactive) | > 25 µM (inactive) | 9.31 µM (inactive) | 12.2 µM (inactive) | > 25 µM (inactive) | > 25 µM (inactive)
N#CSCC1COc2ccccc2O1 (stereo not given) | > 10 µM (inactive) | 0.628 µM (active) | > 10 µM (inactive) | > 10 µM (inactive) | 9.89 | 2.55 µM (inactive) | 6.11 µM (inactive) | > 10 µM (inactive) | > 10 µM (inactive) | > 10 µM (inactive) | > 10 µM (inactive) | > 10 µM (inactive) | 4.98 µM (inactive) | > 10 µM (inactive) | 6.87 µM (inactive) | 7.57 µM (inactive) | > 10 µM (inactive) | 4.97 µM (inactive) | > 10 µM (inactive) | > 10 µM (inactive)
CN(CCO)CCC1COc2ccccc2O1 (stereo not given) | > 10 µM (inactive) | > 10 µM (inactive) | > 10 µM (inactive) | > 10 µM (inactive) | > 10 | > 10 µM (inactive) | > 10 µM (inactive) | > 10 µM (inactive) | > 10 µM (inactive) | > 10 µM (inactive) | > 10 µM (inactive) | > 10 µM (inactive) | > 10 µM (inactive) | > 10 µM (inactive) | > 10 µM (inactive) | > 10 µM (inactive) | > 10 µM (inactive) | > 10 µM (inactive) | > 10 µM (inactive) | > 10 µM (inactive)
